The values that follow are results of earlier work, collected in US20130259998A1, “FOODSTUFF PRESERVING COMPOSITION AND USE THEREOF” (NIACET B.V., priority 2012, published 2013).

For this data set the following is noted: ingredient as such.
As to `CC(=O)O.CC(=O)O.NC(=N\CCCCCC/N=C(N)/N=C(\N)Nc1ccc(Cl)cc1)/N=C(\N)Nc1ccc(Cl)cc1` [diacetate], the pH as such is 4.5-5.0.
For `CC(=O)[O-].[Na+]` [sodium acetate], the pH as such is 8.9.
For `CC(O)C(=O)[O-].[Na+]` (stereo not drawn) [sodium lactate], the pH as such was 6.3.
